# Laboratory results taken from ChEMBL document CHEMBL5506073, “Discovery of Novel Ortho-Aminophenol Derivatives Targeting Lipid Peroxidation with Potent Antiferroptotic Activities” (J Med Chem, 2024).
# Active and inactive are the calls of the source. The rule behind the calls is not given here.
# How the values were obtained:
# Mus musculus [1] = assay: Protection against APAP-induced acute liver injury in overnight fasted C57BL/6 mouse model assessed as decrease in plasma AST level at 10 mg/kg, ip administered 1 hr prior to APAP treatment measured after 12 hrs post-APAP treatment under continuous fasting condition; format: functional, organism-based; conditions: time 13.0 hrs
# Mus musculus [2] = assay: Protection against APAP-induced acute liver injury in overnight fasted C57BL/6 mouse model assessed as decrease in plasma ALT level at 10 mg/kg, ip administered 1 hr prior to APAP treatment measured after 12 hrs post-APAP treatment under continuous fasting condition; format: functional, organism-based; conditions: time 13.0 hrs
# Mus musculus [3] = assay: Protection against APAP-induced acute liver injury in overnight fasted C57BL/6 mouse model assessed as reduction in 4-HNE formation in liver at 10 mg/kg, ip administered 1 hr prior to APAP treatment measured after 12 hrs post-APAP treatment under continuous fasting condition by IHC analysis; format: functional, organism-based; conditions: time 13.0 hrs
# HT-1080 [4] = assay: Inhibition of RSL3-induced ferroptosis in human HT-1080 cells assessed as cell viability incubated for 24 hrs by CCK8 assay; format: functional, cell-based; conditions: HT-1080, 24 h
# HT-1080 [5] = assay: Inhibition of RSL3-induced ferroptosis in human HT-1080 cells assessed as cell viability at 200 nM incubated for 24 hrs by CCK8 assay; format: functional, cell-based
# HKC [6] = assay: Inhibition of RSL3-induced ferroptosis in human HKC cells assessed as cell viability at 200 nM incubated for 24 hrs by CCK8 assay; format: functional, cell-based
# HK-2 [7] = assay: Inhibition of RSL3-induced ferroptosis in human HK-2 cells assessed as cell viability at 200 nM incubated for 24 hrs by CCK8 assay; format: functional, cell-based
# KHOS/NP [8] = assay: Inhibition of RSL3-induced ferroptosis in human KHOS/NP cells assessed as cell viability at 200 nM incubated for 24 hrs by CCK8 assay; format: functional, cell-based
# SW480 [9] = assay: Inhibition of RSL3-induced ferroptosis in human SW480 cells assessed as cell viability at 200 nM incubated for 24 hrs by CCK8 assay; format: functional, cell-based
# HTR-8/SVneo [10] = assay: Inhibition of RSL3-induced ferroptosis in human HTR-8/SVneo cells assessed as cell viability at 200 nM incubated for 24 hrs by CCK8 assay; format: functional, cell-based
# HT-1080 [11] = assay: Inhibition of FIN56-induced ferroptosis in human HT-1080 cells assessed as cell viability at 200 nM incubated for 24 hrs by CCK8 assay; format: functional, cell-based
# HKC [12] = assay: Inhibition of FIN56-induced ferroptosis in human HKC cells assessed as cell viability at 200 nM incubated for 24 hrs by CCK8 assay; format: functional, cell-based
# HK-2 [13] = assay: Inhibition of FIN56-induced ferroptosis in human HK-2 cells assessed as cell viability at 200 nM incubated for 24 hrs by CCK8 assay; format: functional, cell-based
# KHOS/NP [14] = assay: Inhibition of FIN56-induced ferroptosis in human KHOS/NP cells assessed as cell viability at 200 nM incubated for 24 hrs by CCK8 assay; format: functional, cell-based
# SW480 [15] = assay: Inhibition of FIN56-induced ferroptosis in human SW480 cells assessed as cell viability at 200 nM incubated for 24 hrs by CCK8 assay; format: functional, cell-based
# HTR-8/SVneo [16] = assay: Inhibition of FIN56-induced ferroptosis in human HTR-8/SVneo cells assessed as cell viability at 200 nM incubated for 24 hrs by CCK8 assay; format: functional, cell-based
# HT-1080 [17] = assay: Inhibition of ferroptosis in human HT-1080 cells assessed as reversal of RSL3-induced cell shrinkage; format: functional, cell-based
# HT-1080 [18] = assay: Inhibition of ferroptosis in human HT-1080 cells assessed as reversal of RSL3-induced swelling; format: functional, cell-based
# HT-1080 [19] = assay: Inhibition of ferroptosis in human HT-1080 cells assessed as reversal of RSL3-induced membrane rupture; format: functional, cell-based
# HT-1080 [20] = assay: Inhibition of ferroptosis in human HT-1080 cells assessed as reversal of RSL3-induced normal morphological loss; format: functional, cell-based
# HT-1080 [21] = assay: Inhibition of RSL3-induced lipid peroxidation in human HT-1080 cells assessed as reduction in green fluorescence by C11-BODIPY581/591 probe based analysis; format: functional, cell-based
# HT-1080 [22] = assay: Inhibition of RSL3-induced lipid peroxidation in human HT-1080 cells assessed as reduction in MDA adduct accumulation by ELISA; format: functional, cell-based
# HT-1080 [23] = assay: Effect on lipid metabolism in human HT-1080 cells assessed as change in ACSL4 mRNA level by qRT-PCR analysis; format: functional, cell-based
# HT-1080 [24] = assay: Effect on lipid metabolism in human HT-1080 cells assessed as change in ALOX15 mRNA level by qRT-PCR analysis; format: functional, cell-based
# HT-1080 [25] = assay: Effect on lipid metabolism in human HT-1080 cells assessed as change in COX2 mRNA level by qRT-PCR analysis; format: functional, cell-based
# HT-1080 [26] = assay: Effect on glutathione metabolic pathway in human HT-1080 cells assessed as change in GPX4 mRNA level by qRT-PCR analysis; format: functional, cell-based
# HT-1080 [27] = assay: Effect on glutathione metabolic pathway in human HT-1080 cells assessed as change in SLC7A11 mRNA level by qRT-PCR analysis; format: functional, cell-based
# HT-1080 [28] = assay: Effect on iron metabolism in human HT-1080 cells assessed as change in DMT1 mRNA level by qRT-PCR analysis; format: functional, cell-based
# HT-1080 [29] = assay: Effect on iron metabolism in human HT-1080 cells assessed as change in TFRC mRNA level by qRT-PCR analysis; format: functional, cell-based
# HT-1080 [30] = assay: Effect on iron metabolism in human HT-1080 cells assessed as change in FTH1 mRNA level by qRT-PCR analysis; format: functional, cell-based
# [31] = Antioxidant activity assessed as DPPH radical scavenging activity at 20 uM incubated for 30 mins by absorbance based assay; format: functional
# Mus musculus [32] = assay: Protection against kidney ischemia-reperfusion injury in C57BL/6 mouse model assessed as decrease in serum creatinine level at 10 mg/kg, ip administered twice 1 hr prior to ischemia onset measured after 24 hrs post-ischemia; format: functional, organism-based; conditions: time 25.0 hrs
# Mus musculus [33] = assay: Protection against kidney ischemia-reperfusion injury in C57BL/6 mouse model assessed as decrease in BUN level at 10 mg/kg, ip administered twice 1 hr prior to ischemia onset measured after 24 hrs post-ischemia; format: functional, organism-based; conditions: time 25.0 hrs
# Mus musculus [34] = assay: Protection against kidney ischemia-reperfusion injury in C57BL/6 mouse model assessed as decrease in renal tubule dilation at 10 mg/kg, ip administered twice 1 hr prior to ischemia onset measured after 24 hrs post-ischemia by H and E staining based analysis; format: functional, organism-based; conditions: time 25.0 hrs
# Mus musculus [35] = assay: Protection against kidney ischemia-reperfusion injury in C57BL/6 mouse model assessed as decrease in brush edges loss in kidney at 10 mg/kg, ip administered twice 1 hr prior to ischemia onset measured after 24 hrs post-ischemia by H and E staining based analysis; format: functional, organism-based; conditions: time 25.0 hrs
# Mus musculus [36] = assay: Protection against kidney ischemia-reperfusion injury in C57BL/6 mouse model assessed as decrease in cytoplasmic vacuoles in kidney at 10 mg/kg, ip administered twice 1 hr prior to ischemia onset measured after 24 hrs post-ischemia by H and E staining based analysis; format: functional, organism-based; conditions: time 25.0 hrs
# Mus musculus [37] = assay: Protection against kidney ischemia-reperfusion injury in C57BL/6 mouse model assessed as decrease in KIM-1 level in kidney at 10 mg/kg, ip administered twice 1 hr prior to ischemia onset measured after 24 hrs post-ischemia by IHC analysis; format: functional, organism-based; conditions: time 25.0 hrs
# Mus musculus [38] = assay: (§1) Protection against APAP-induced acute liver injury in overnight fasted C57BL/6 mouse model assessed as normal pathology of liver at 10 mg/kg, ip administered 1 hr prior to APAP treatment measured after 12 hrs post-APAP treatment under continuous fasting condition by H and E staining based analysis; format: functional, organism-based; conditions: time 13.0 hrs
# Mus musculus [39] = assay: Protection against APAP-induced acute liver injury in overnight fasted C57BL/6 mouse model assessed as reversal of native liver architecture at 10 mg/kg, ip administered 1 hr prior to APAP treatment measured after 12 hrs post-APAP treatment under continuous fasting condition by H and E staining based analysis; format: functional, organism-based; conditions: time 13.0 hrs
# Mus musculus [40] = assay: as §1, with “reduction in necrotic areas” for “normal pathology”; format: functional, organism-based; conditions: time 13.0 hrs
smiles,measurement,setting,value
COc1ccc(/C=N/NC(=O)c2cccc(O)c2N)cc1,Activity,Mus musculus [1],Active
same,Activity,Mus musculus [2],Active
same,Activity,Mus musculus [3],Active
same,EC50,HT-1080 [4],40.5 nM
same,inhibition,HT-1080 [5],Active
same,inhibition,HKC [6],Active
same,inhibition,HK-2 [7],Active
same,inhibition,KHOS/NP [8],Active
same,inhibition,SW480 [9],Active
same,inhibition,HTR-8/SVneo [10],Active
same,inhibition,HT-1080 [11],Active
same,inhibition,HKC [12],Active
same,inhibition,HK-2 [13],Active
same,inhibition,KHOS/NP [14],Active
same,inhibition,SW480 [15],Active
same,inhibition,HTR-8/SVneo [16],Active
same,inhibition,HT-1080 [17],Active
same,inhibition,HT-1080 [18],Active
same,inhibition,HT-1080 [19],Active
same,inhibition,HT-1080 [20],Active
same,inhibition,HT-1080 [21],Active
same,inhibition,HT-1080 [22],Active
same,Activity,HT-1080 [23],inactive
same,Activity,HT-1080 [24],inactive
same,Activity,HT-1080 [25],inactive
same,Activity,HT-1080 [26],inactive
same,Activity,HT-1080 [27],inactive
same,Activity,HT-1080 [28],inactive
same,Activity,HT-1080 [29],inactive
same,Activity,HT-1080 [30],inactive
same,Activity,[31],Active
same,Activity,Mus musculus [32],Active
same,Activity,Mus musculus [33],Active
same,Activity,Mus musculus [34],Active
same,Activity,Mus musculus [35],Active
same,Activity,Mus musculus [36],Active
same,Activity,Mus musculus [37],Active
same,Activity,Mus musculus [38],Active
same,Activity,Mus musculus [39],Active
same,Activity,Mus musculus [40],Active
